Tests used:
Test in all cases: relative viability (nuclei count vs DMSO), 5 days (fraction); higher = more cells survive
AGI-6780 + Tozasertib = compound: O=C(Nc1cccc(C(F)(F)F)c1)Nc1cc(S(=O)(=O)NC2CC2)ccc1-c1ccsc1 [AGI-6780] + Cc1cc(Nc2cc(N3CCN(C)CC3)nc(Sc3ccc(NC(=O)C4CC4)cc3)n2)n[nH]1 [Tozasertib] (partner 0.1 µM)
Method in brief: (§1)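 Lung cancer cell lines were seeded in 1536-well plates and dosed by pin tool the next day, with either a single drug or a fixed anchor-drug dose combined with five library-drug doses (not always all listed) spaced in √10 steps. Five days later, one step fixed the cells and stained their nuclei (final 0.05% Triton X-100, 1% formaldehyde, 1 ug/ml Hoechst), and nuclei were counted on 4× images. Relative viability is the nuclei count in treated wells divided by the count in vehicle wells, and each value is the median of duplicate plates.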

AGI-6780 + Linsitinib = compound: O=C(Nc1cccc(C(F)(F)F)c1)Nc1cc(S(=O)(=O)NC2CC2)ccc1-c1ccsc1 [AGI-6780] + C[C@]1(O)C[C@@H](c2nc(-c3ccc4ccc(-c5ccccc5)nc4c3)c3c(N)nccn32)C1 [Linsitinib] (partner 1 µM)
Method in brief: as §1

AGI-6780 + OSI-027 = compound: O=C(Nc1cccc(C(F)(F)F)c1)Nc1cc(S(=O)(=O)NC2CC2)ccc1-c1ccsc1 [AGI-6780] + COc1cccc2cc(-c3nc([C@H]4CC[C@H](C(=O)O)CC4)n4ncnc(N)c34)[nH]c12 [OSI-027] (partner 0.5 µM)
Method in brief: as §1

AGI-6780 + Crizotinib = compound: O=C(Nc1cccc(C(F)(F)F)c1)Nc1cc(S(=O)(=O)NC2CC2)ccc1-c1ccsc1 [AGI-6780] + C[C@@H](Oc1cc(-c2cnn(C3CCNCC3)c2)cnc1N)c1c(Cl)ccc(F)c1Cl [Crizotinib] (partner 1 µM)
Method in brief: as §1

Cell Line	relative viability (AGI-6780 + Tozasertib; first compound 0.08 µM)	relative viability (AGI-6780 + Tozasertib; first compound 0.253 µM)	relative viability (AGI-6780 + Tozasertib; first compound 0.8 µM)	relative viability (AGI-6780 + Tozasertib; first compound 2.53 µM)	relative viability (AGI-6780 + Tozasertib; first compound 8 µM)	relative viability (AGI-6780 + Linsitinib; first compound 0.08 µM)	relative viability (AGI-6780 + Linsitinib; first compound 0.253 µM)	relative viability (AGI-6780 + Linsitinib; first compound 0.8 µM)	relative viability (AGI-6780 + Linsitinib; first compound 2.53 µM)	relative viability (AGI-6780 + Linsitinib; first compound 8 µM)	relative viability (AGI-6780 + OSI-027; first compound 0.08 µM)	relative viability (AGI-6780 + OSI-027; first compound 0.253 µM)	relative viability (AGI-6780 + OSI-027; first compound 0.8 µM)	relative viability (AGI-6780 + OSI-027; first compound 2.53 µM)	relative viability (AGI-6780 + OSI-027; first compound 8 µM)	relative viability (AGI-6780 + Crizotinib; first compound 0.08 µM)	relative viability (AGI-6780 + Crizotinib; first compound 0.253 µM)	relative viability (AGI-6780 + Crizotinib; first compound 0.8 µM)	relative viability (AGI-6780 + Crizotinib; first compound 2.53 µM)	relative viability (AGI-6780 + Crizotinib; first compound 8 µM)
RERF-LC-KJ	0.506	0.619	0.461	0.452	0.34	0.863	1	0.837	0.822	0.845	0.579	0.719	0.614	0.465	0.454	0.769	0.879	0.808	0.791	0.792
LK-2	0.178	0.16	0.147	–	0.162	0.617	0.646	0.536	–	0.522	0.172	0.224	0.189	–	0.197	0.262	0.209	0.271	–	0.211
NCI-H1944	0.252	0.27	0.247	–	0.242	1.22	1.28	1.24	0.931	1.13	0.414	0.466	0.461	–	0.425	1.16	1.12	1.25	0.926	1.02
HCC-827	0.226	0.433	0.41	0.405	0.432	1.01	0.96	0.872	0.989	0.942	0.68	0.705	0.824	0.673	0.798	0.965	0.9	0.861	0.981	0.943
NCI-H3122	0.373	0.398	0.445	0.298	0.389	1.03	0.982	1.01	1.08	1.04	0.998	0.913	1.08	0.727	1.01	0.252	0.291	0.301	0.252	0.293
UMC-11	0.197	0.198	0.206	–	0.192	0.868	0.968	1.08	–	0.987	0.488	0.452	0.473	–	0.509	0.754	0.606	0.676	–	0.751
EPLC-272H	–	0.307	0.281	0.187	0.257	1.28	1.43	1.21	1.03	1.11	–	0.282	0.247	0.245	0.293	0.888	0.929	0.841	0.714	0.791
NCI-H1651	0.785	0.601	0.591	0.429	0.693	0.959	0.966	0.982	0.876	0.837	0.659	0.684	0.731	0.691	0.661	0.821	0.902	0.898	0.878	0.879
NCI-H650	0.749	0.747	0.72	0.642	0.7	0.906	0.867	0.992	0.883	0.895	0.509	0.59	0.462	0.443	0.475	0.833	0.673	0.737	0.601	0.641
LOU-NH91	0.725	0.642	0.63	0.583	0.64	0.99	0.921	0.857	0.901	0.93	0.739	0.705	0.676	0.621	0.709	0.753	0.764	0.712	0.705	0.715
HARA	0.0824	0.106	0.114	0.0867	0.111	0.921	0.949	0.841	0.971	0.985	0.573	0.594	0.339	0.197	0.514	1.05	1.08	0.894	1.01	1.07
NCI-H596	0.839	0.898	0.725	–	0.983	1.24	1.09	0.961	0.931	1.12	0.803	0.841	0.643	–	0.647	0.928	1	0.912	0.773	1.03
LCLC-103H	0.492	0.475	0.51	0.451	0.562	1.18	1.15	0.963	1.06	1.06	0.554	0.518	0.45	0.38	0.491	1.08	1.12	1	1.03	1.01
SK-MES-1	1.02	0.961	1	0.88	0.747	1.08	1.06	0.92	0.984	1.09	0.635	0.662	0.561	0.448	0.509	0.942	0.964	0.935	0.871	0.953
A-427	0.264	0.217	0.19	0.154	0.168	1.09	1.07	1.1	1.03	1.12	0.477	0.458	0.507	0.384	0.509	1.02	0.897	1.06	0.693	0.901
NCI-H441	0.608	0.733	0.474	0.415	0.599	0.498	0.528	0.461	0.424	0.459	0.78	0.922	0.599	0.54	0.504	0.766	0.988	1.05	0.513	0.887
HCC-44	0.831	1.02	1.25	0.981	0.814	0.714	0.73	0.693	0.622	0.597	0.628	0.719	0.477	0.47	0.594	0.769	0.811	0.82	0.855	0.821

Cell Line	relative viability (AGI-6780 + Tozasertib; first compound 0.08 µM)	relative viability (AGI-6780 + Tozasertib; first compound 0.253 µM)	relative viability (AGI-6780 + Tozasertib; first compound 0.8 µM)	relative viability (AGI-6780 + Tozasertib; first compound 2.53 µM)	relative viability (AGI-6780 + Tozasertib; first compound 8 µM)	relative viability (AGI-6780 + Linsitinib; first compound 0.08 µM)	relative viability (AGI-6780 + Linsitinib; first compound 0.253 µM)	relative viability (AGI-6780 + Linsitinib; first compound 0.8 µM)	relative viability (AGI-6780 + Linsitinib; first compound 2.53 µM)	relative viability (AGI-6780 + Linsitinib; first compound 8 µM)	relative viability (AGI-6780 + OSI-027; first compound 0.08 µM)	relative viability (AGI-6780 + OSI-027; first compound 0.253 µM)	relative viability (AGI-6780 + OSI-027; first compound 0.8 µM)	relative viability (AGI-6780 + OSI-027; first compound 2.53 µM)	relative viability (AGI-6780 + OSI-027; first compound 8 µM)	relative viability (AGI-6780 + Crizotinib; first compound 0.08 µM)	relative viability (AGI-6780 + Crizotinib; first compound 0.253 µM)	relative viability (AGI-6780 + Crizotinib; first compound 0.8 µM)	relative viability (AGI-6780 + Crizotinib; first compound 2.53 µM)	relative viability (AGI-6780 + Crizotinib; first compound 8 µM)
NCI-H1993	0.547	0.588	0.623	0.464	0.536	0.808	0.801	0.765	0.703	0.682	0.367	0.614	0.46	0.588	0.554	0.899	0.913	0.931	0.84	1
NCI-H2023	0.329	0.48	0.358	0.212	0.25	0.711	0.677	0.697	0.648	0.698	0.434	0.455	0.447	0.301	0.337	0.637	0.541	0.856	0.554	0.731
NCI-H1666	0.603	0.616	0.611	0.503	0.563	0.947	0.92	0.811	–	0.927	0.899	0.828	0.809	0.761	1.01	1.09	0.897	1.03	–	1.05
LCLC-97TM1	0.217	0.265	0.291	0.195	0.197	0.177	0.252	0.21	–	0.186	0.596	0.697	0.492	0.398	0.643	0.417	0.48	0.668	–	0.344
NCI-H1755	0.664	0.627	0.517	0.436	0.557	0.987	1.01	0.999	0.974	0.923	0.836	0.758	0.677	0.503	0.666	0.878	0.818	1	0.79	0.886
H3255	0.593	0.52	0.462	0.585	0.552	1	0.947	0.96	0.968	0.969	0.667	0.55	0.551	0.523	0.584	0.884	0.848	0.997	0.84	0.921
NCI-H2085	0.755	0.736	0.779	0.809	0.61	1.01	0.87	0.781	0.921	1.07	0.77	0.825	0.805	0.513	0.89	0.817	1.01	0.926	0.933	0.927
BEN	0.526	0.497	0.503	0.433	0.425	0.894	0.845	1.07	–	0.971	0.311	0.298	0.321	0.28	0.304	0.891	0.738	0.955	–	0.966
COR-L23	0.224	0.216	0.206	0.213	0.178	0.969	0.766	0.77	1.08	0.891	0.743	0.77	0.705	0.527	0.784	0.678	0.622	0.564	0.754	0.617
ABC-1	0.186	0.212	0.17	0.206	0.167	0.756	0.501	0.835	0.736	0.601	0.469	0.524	0.688	0.55	0.595	1.1	1.17	1.69	1.2	0.978
HCC-366	0.102	0.184	0.0941	0.0598	0.0437	0.891	0.682	0.637	0.536	0.568	1.02	1.09	0.926	0.595	1	0.606	0.56	0.445	0.335	0.374
SK-LU-1	0.309	0.318	–	0.279	0.327	1.11	0.976	0.76	0.917	1.16	0.348	0.406	–	0.312	0.359	1.01	0.904	0.629	0.936	0.878
NCI-H2009	0.605	0.725	0.845	0.701	0.683	1.18	1.21	1.12	1.25	1.15	0.667	0.7	0.575	0.668	0.696	1.02	1.09	0.976	1.01	1.05
NCI-H358	0.11	0.108	0.112	0.105	0.11	0.792	0.721	0.752	0.551	0.663	0.846	0.753	0.778	0.467	0.79	0.76	0.566	0.573	0.528	0.471
EKVX	0.349	0.39	0.412	0.335	0.366	1.09	1.03	0.966	1.05	1.04	0.663	0.665	0.721	0.649	0.716	0.904	0.813	1.15	0.888	1.07
NCI-H1975	0.9	0.819	0.738	–	0.474	1.11	0.986	0.912	1.07	0.969	0.813	0.751	0.767	–	0.67	1.07	1.05	0.965	1.02	0.876
